From patent US20230000808A1, “COMPOSITIONS AND METHODS EXCLUDING OR WITH REDUCED GLUTAMINE FOR THE TREATMENT OF HEMOGLOBINOPATHIES AND THALASSEMIAS” (AXCELLA HEALTH INC., priority 2019, published 2023)

What was measured:
VCAM-1 = VCAM-1 cell integrated intensity in HLMVEC treated with TNF-α (immunofluorescence); assay type: cell-based, human
Description: (§1) Primary Human Lung Microvascular Endothelial Cells (HLMVEC; Lonza) were seeded at 6,000 cells per well in Endothelial Cell Growth Basal Medium-2 (Lonza) supplemented with Fetal Bovine Serum (FBS; Lonza), human EGF (Lonza), human VEGF (Lonza), R3-Insulin-like Growth Factor-1 (Lonza), ascorbic acid (Lonza), hydrocortisone (Lonza), human FGF-beta (Lonza), and gentamicin/amphotericin-b (Lonza) in a 96-well plate (Thermo Fisher). The cells were incubated for 45 minutes at room temperature, then incubated overnight at 37° C./5% CO2.
(§2) Following overnight incubation, cell were washed once with 150 μL of Dulbecco's phosphate buffered saline (DPBS; Gibco), and then treated with Endothelial Basal Medium MCB-131 (amino acid, glucose, sodium pyruvate, and phenol red free; US Biologicals) containing a defined custom amino acid concentration based on physiological concentrations in blood of patients with SCD (thus recapitulating observed metabolic imbalances such as the depletion of certain essential amino acids including arginine and aspartate and enrichment of certain non-essential amino acids including glutamate and asparagine), dialyzed FBS (Hyclone), human EGF (Lonza), human VEGF (Lonza), R3-Insulin-like Growth Factor-1 (Lonza), ascorbic acid (Lonza), hydrocortisone (Lonza), human FGF-beta (Lonza), and gentamicin/amphotericin-b (Lonza), glucose, 10 mM HEPES, sodium pyruvate, and sodium bicarbonate supplemented with one of the following: • a. PBS (vehicle control), • b. 0.5 ng/mL Tumor Necrosis Factor alpha (TNFα) and PBS, or; • c. 0.5 ng/mL TNF-α and amino acid treatments at 20× mean physiological concentrations in plasma based on values published in the Human Metabolome Database (HMDB) in PBS.
(§3) After 24 hours of treatment, cells were washed once with 150 μL of DPBS (Gibco), then fixed with 4% paraformaldehyde. Following fixation, cells were stained with anti-ICAM-1 [MEM-111] (mouse IgG2a anti-human; abcam) and anti-VCAM1 [1.4C3] (mouse IgG1, K anti-human; abcam) primary antibodies at 1000×, and 100× dilutions respectively. Cells were then stained with Goat anti-Mouse IgG2a Cross-Adsorbed Secondary Antibody, Alexa Fluor 594 (Invitrogen) and Goat anti-Mouse IgG1 Cross-Adsorbed Secondary Antibody, Alexa Fluor 647 (Invitrogen) secondary antibodies. Nuclei were stained with Hoechst 3342 (Life Technologies).
(§4) Antibody binding was detected by fluorescence microscopy using a high content imager (Molecular Devices). Images were analyzed using MetaXpress 6 software to determine the integrated intensity per cell for each wavelength corresponding to ICAM-1 or VCAM-1.

IL-6 [1] = assay: Secreted IL-6 in HLMVEC treated with TNF-α (FirePlex); assay type: cell-based, human; conditions: HLMVEC + 0.5 ng/mL TNF-α, 24 h; amino acids 20x HMDB, Nac/Cit/Car 5 mM as bracketed
Description: as §1, §2
Supernatants were analyzed for IL-6 concentrations using a Human Cytokines FirePlex-HT Panel 1 kit (abcam) according to the manufacturer-supplied instructions. Particles were imaged on a high content imager (Molecular Devices), and results were interpolated from a standard curve with FirePlex Analysis Workbench Software (abcam) according manufacturer's recommendations.

HLMVEC = assay: META-rank score, composite of VCAM1, ICAM1 and IL6 in the HLMVEC model; assay type: cell-based, human; conditions: HLMVEC + TNF-α; lower score = more optimal; 20x HMDB / 5 mM
Description: The ability of single amino acids and combinations to simultaneously impact these phenotypes was measured by a META-rank score (Tables 17 and 18). META-rank score is a composite measure that considers the optimal impact on all 3 phenotypes (e.g. decrease VCAM1, ICAM1, and IL6) in the HLMVEC model.

[2] = system: RBCs of healthy whole blood; assay: RBC deformability (Elongation Index, LORRCA ektacytometry), ex vivo TBHP oxidation of healthy whole blood; assay type: cell-based, human; conditions: healthy donor 2, single amino acid treatments
Source text: Whole blood from healthy African American and/or Hispanic donors was obtained from Research Blood Components, LLC based on the following donor selection criteria: Adult age (between 18 and 50 years), normal BMI (<30), and absence of other confounding clinical conditions. Whole blood from SCD donors were obtained from BioIVT based on the following donor selection criteria: Patients with genotypes HbSS, HbSC, HbS/β^0 and at least 1-2 months gap since last blood transfusion. Whole blood was shipped on ice on the same day as blood draw. Upon receipt, the blood sample was aliquoted and stored in the refrigerator until used for studies.
RBC deformability measurements were conducted with the Laser Optical Rotational Red Cell Analyzer (LORRCA) from RR Mechatronics in a temperature-controlled environment (37° C.). Briefly, an even layer of RBCs suspended in polyvinylpyrrolidone (PVP) is subjected to shear stress gradient (0.3 to 30 Pa) through two concentric cylinders and the resulting changes in RBC shape or deformability are measured by a laser beam diffraction pattern. The captured images of RBC shape in response to increasing shear stress are then analyzed by the LORRCA program to calculate Elongation Index (EI).
Healthy RBCs have higher deformability ≥0.5 EI and SCD RBCs have lower deformability or EI values as studied by LORRCA ektacytometry in the field. […] The induced hemolysis model in this disclosure involves use of tert-butyl hydroperoxide (TBHP) to lower EI of RBCs.
The ex vivo hemolysis study disclosed here involves overnight treatment of whole blood with vehicle as a control and specific amino acids followed by rapid oxidation (5 min) with TBHP. Method for oxidation of whole blood with tert-butyl hydroperoxide has been used in prior literature (Diederich L, et al, Front Physiol. 2018 May 11; 9:332). RBC deformability or shape changes are then measured with LORRCA ektacytometry.
Whole blood aliquots stored in the fridge were brought up to room temperature while gently shaking on a rocker at low speed for an hour to ensure gradual and uniform suspension of red blood cells prior to deformability measurements. Vehicle control used in the study was 1× Dulbecco's […]) and amino acids disclosed herein were added (at either final 10× or 2.5 mM concentration as indicated) to corresponding vehicle and amino acid treatment conditions. The samples were then incubated overnight at 37° C. The next day, 25 μl of whole blood was taken from each treatment condition and added to 5 mL Elon ISO viscous solution from RR Mechatronics. The sample was inverted 15-20 times to ensure proper mixing of the treated RBCs with the Elon ISO solution followed by loading the sample on LORRCA and capturing RBC deformability or shape measurements over the applied shear gradient. The remaining whole blood treatments were returned to incubator (37° C.) until deformability measurements were completed for all treatments. To the remaining whole blood treatment samples, TBHP solution (5.0-6.0 M in Decane, Sigma) was added at 2.5 mM final concentration from a 100 mM freshly prepared stock and incubated for further 5 min at 37° C. 25 μl of this TBHP-treated sample was immediately removed at the end of the 5 min incubation and added to the Elon ISO solution for RBC deformability measurement after oxidation. Included in the Tables 13-15 are EI measurements at ½ EImax shear stress 1.69 Pa and EImax shear stress 30 Pa from these studies and FIG. 1 captures EI measurements for all shear stress points for the indicated treatment conditions.

ICAM-1 = ICAM-1 cell integrated intensity in HLMVEC treated with TNF-α (immunofluorescence); assay type: cell-based, human; conditions: HLMVEC + 0.5 ng/mL TNF-α, 24 h; amino acids 20x HMDB, Nac/Cit/Car 5 mM as bracketed
Description: as §1, §2, §3, §4

[3] = system: sickle cell disease patient blood; assay: ROS (DCF fluorescence) in sickle cell disease patient whole blood; assay type: cell-based, human
Description: (§5) Whole blood samples were appropriately diluted in Ca^2+- and Mg^2+-free Dulbecco's phosphate buffered saline (DPBS, Life Technologies) and the concentration of erythrocytes (RBC/mL) was measured on a Cellometer K2 Fluorescent Viability Cell Counter according to the manufacturer's RBC/AOPI protocol (Nexcelom Biosciences).
(§6) Cells were then diluted to 1×10^6 RBC/mL into either prewarmed 37° C. […] 2′-7′-dichlorofluorescin diacetate (DCF, Millipore Sigma), 20 mM in dimethyl sulfoxide (DMSO, Fisher) were added to a working concentration of 100 μM. Cells were incubated with dye for 15 minutes at 37° C., 5% CO2 in a tissue culture incubator, washed once, and resuspended in the 0.9 volumes of the same prewarmed 37° C. buffer with 5 minute spins at 500×g, accel/decal=5 in a swing arm centrifuge (Beckman Coulter). […] Where possible due to solubility constrains, pH-7.4-adjusted stock solutions of amino acids were used. Wells were mixed by pipetting and plates incubated at 37° C., 5% CO2 in a tissue culture incubator for 30 minutes. Optionally, 40 mM H2O2 (Millipore Sigma) freshly prepared in the same buffer was added to bring the concentration to 2 mM, wells mixed by pipetting, and plates were incubated an additional 30, 60, 120, or 240 minutes before fluorescence measurement of ROS signal on a Synergy H4 (BioTek) microplate reader with excitation=488 nm and emission=530 nm, and gain either set to autogain, 75, or 100.

[4] = system: whole blood from healthy controls; assay: ROS (DCF fluorescence) in whole blood of healthy control donors, H2O2-induced; assay type: cell-based, human
Description: as §5, §6

IL-6 [5] = assay: LPS-induced IL-6 secretion in primary human monocyte-derived macrophages (ELISA); assay type: cell-based; conditions: for Donor 1 IL-6 Measurements Mean / Donor 2 IL-6 Measurements Mean / Donor 3 IL-6 Measurements Mean: LPS, baseline subtracted
Description: (§7) Primary human PMBC derived macrophages were seeded on day 0 at 3.0×10^4 cells per well in 96-well microplates (ThermoFisher) in Dulbecco's Modified Eagle Medium (DMEM) (Gibco) supplemented with penicillin-streptomycin (Hyclone) and 10% heat inactivated fetal bovine serum (HI-FBS) (Atlanta Bio) and incubated overnight at 37° C., 5% CO2. On day 1, cells were washed once with 150 μl per well DPBS (Gibco) and treated with 75 μl of: • a. […] The same medium described above with one amino acid at various concentrations including complete dropout. […] On day 3, the supernatant was collected and immediately frozen in −80° C. freezer. Cells were washed once with 150 μl DPBS and viability was assessed using the WST-8 Cell Proliferation Cytotoxicity Assay (Dojindo). […] Protein levels in supernatant samples were analyzed by ELISA for IL-6 and TNFα using commercially available kits (R&D Systems) according to manufacturer-supplied protocols.

TNFα = assay: LPS-induced TNF-α secretion in primary human monocyte-derived macrophages (ELISA); assay type: cell-based; conditions: LPS, baseline subtracted
Description: as §7

[6] = Donor 1, Conc. 109 μM (baseline)

## NC(=O)NCCC[C@H](N)C(=O)O [Cit, citrulline]
VCAM-1; 0.5 ng/mL TNF-α, amino acids at 20× HMDB, 24 hours
  VCAM-1 expression in HLMVEC: moderate effect
VCAM-1; HLMVEC + 0.5 ng/mL TNF-α, 24 h, amino acids 20x HMDB, Nac/Cit/Car 5 mM as bracketed
  VCAM-1 Cell Integrated Intensity Median: −0.157
IL-6 [1]
  Secreted IL6 Median: −0.270
HLMVEC
  Meta-Rank (Table 18): 8
  Metarank (Table 17): 16
[2]
  EI over vehicle control, both ½ EImax and EImax: higher than the vehicle
ICAM-1
  ICAM-1 Cell Integrated Intensity Median: −0.118

## N[C@@H](Cc1c[nH]c2ccccc12)C(=O)O [tryptophan]
[3]; 10×
  ROS signal: increased
[4]; healthy donor blood, 10×
  ROS signal: increased

## N[C@@H](CS)C(=O)O [cysteine]
[3]; both treated with H2O2 and untreated, in DPBS
  ROS measured in whole blood: reduced
[4]; healthy control donors treated with H2O2, dose-responsive
  ROS measured in whole blood: reduced

## N=C(N)NCCC[C@H](N)C(=O)O [Arginine]
IL-6 [5]; [6]
  Donor 1 IL-6 Measurements Mean: 0
IL-6 [5]; Donor 1, Conc. 1088 μM
  Donor 1 IL-6 Measurements Mean: −181.36
IL-6 [5]; Donor 1, Conc. 2720 μM
  Donor 1 IL-6 Measurements Mean: −186.57
IL-6 [5]; Donor 1, Conc. 5440 μM
  Donor 1 IL-6 Measurements Mean: 357.4394
IL-6 [5]; Donor 1, Two Way ANOVA Dunnett
  effect on LPS-induced IL-6 secretion: increased
IL-6 [5]; Conc. 109 μM (baseline)
  Donor 2 IL-6 Measurements Mean: 2.37E−15
  Donor 3 IL-6 Measurements Mean: 0
IL-6 [5]; Conc. 1088 μM
  Donor 2 IL-6 Measurements Mean: −9.701
  Donor 3 IL-6 Measurements Mean: 31.5786
IL-6 [5]; Conc. 2720 μM
  Donor 2 IL-6 Measurements Mean: −13.6102
  Donor 3 IL-6 Measurements Mean: −7.503
IL-6 [5]; Conc. 5440 μM
  Donor 2 IL-6 Measurements Mean: −12.4164
  Donor 3 IL-6 Measurements Mean: −6.81
TNFα; [6]
  TNF-α Measurements Mean: 0
TNFα; Donor 1, Conc. 1088 μM
  TNF-α Measurements Mean: −24.33
TNFα; Donor 1, Conc. 2720 μM
  TNF-α Measurements Mean: 5.12
TNFα; Donor 1, Conc. 5440 μM
  TNF-α Measurements Mean: 62.06
TNFα; Donor 2, Conc. 109 μM (baseline)
  TNF-α Measurements Mean: 1.42E−14
TNFα; Donor 2, Conc. 1088 μM
  TNF-α Measurements Mean: −12.7222
TNFα; Donor 2, Conc. 2720 μM
  TNF-α Measurements Mean: −3.763
TNFα; Donor 2, Conc. 5440 μM
  TNF-α Measurements Mean: −0.5738
TNFα; Donor 3, Conc. 109 μM (baseline)
  TNF-α Measurements Mean: 3.55E−15
TNFα; Donor 3, Conc. 1088 μM
  TNF-α Measurements Mean: 3.131
TNFα; Donor 3, Conc. 2720 μM
  TNF-α Measurements Mean: −0.9669
TNFα; Donor 3, Conc. 5440 μM
  TNF-α Measurements Mean: −1.767
[2]
  EI over vehicle control, both ½ EImax and EImax: higher than the vehicle
